Experimental data taken from patent US12428445B2, “Mini-nucleosome core proteins and use in nucleic acid delivery” (priority 2018, dated 2025).
Where no end group is shown, it is not given here. [ ]: non-standard residue; d: D form. LINKER = not defined here

Experiments:
[1] = test system: muscle cells; assay: Intramuscular delivery, GFP fluorescence and dystrophin immunolabeling in leg muscle sections; assay type: in vivo; details: 17.5 ug per leg, Balb/c mice, 3-months post injection
Protocol: Balb/c mice were anesthetized by IP injection with Ketamine/Xylazine (90-100 mg/kg+10 mg/kg) and several loaded mini-nucleosomes were injected into both leg muscle at 17.5 ug doses per leg using an insulin syringe (Total dose 35 micrograms per mice). Mice were sacrificed at various time points and leg muscle were obtained for tissue sections. […] One skilled in the art may contemplate combining such domains with other domains known for muscle tropism.
To validate muscle specificity of expression of genes encoded by the nucleic acid cargo, we utilized dystrophin immunolabeling as an endogenous secondary marker. […] Native fluorescence of GFP was obtained in the 486-nm channel of Leica SP5 scope. Dystrophin in red is the RFP channel (555-nm). Untransduced muscle cells in figure also serve as internal control for differentiation between GFP signal and autofluorescence.

[2] = Transmission Electron Microscopy (TEM) of loaded mini-nucleosomes (shape); assay type: physicochemical; details: Luciferase plasmid (SEQ ID NO: 396) condensed with core protein; final formulation in sterile, endotoxin free water
From the text: Provided in this Example are techniques to produce loaded mini-nucleosomes in various formulations, including formulations useful for administration to cells and to mammalian subjects, e.g., humans. Loaded mini-nucleosomes can be formulated to different shape and/or sizes parameters based on the mini-nucleosome core protein amino acid sequence and the buffer conditions in which the synthesis occurs. Loaded mini-nucleosomes can be formulated in different conditions, e.g., with solubility suitable for therapeutic use. Solubility of loaded mini-nucleosomes in water and/or normal saline is one means to allow non-toxic formulation of compositions for administration to patients, and to ease of delivery into patients. To form loaded mini-nucleosomes represented in FIG. 7, core proteins were synthesized by solid phase synthesis using trifluoroacetate buffers. 200 micrograms of DNA (SEQ ID NO: 396) were added to 1 milligram of lyophilized core proteins and vortexed together, and purified to produce loaded mini-nucleosomes (FIG. 7). Buffer exchange was performed and final formulation of mini-nucleosome was made in sterile, endotoxin free water. 1 microgram of each kind of mini-nucleosomes was diluted in water and then placed on grids that were stained with freshly prepared in 0.75% uranyl acetate in methanol solution for two minutes. […]

[3] = test system: retina and RPE cells; assay: Intraocular (intravitreal) delivery, native GFP fluorescence in retinal sections and RPE whole mounts; assay type: in vivo; details: 1.5 micrograms, Balb/c mice
Protocol: In the present Example, Balb/c mice were anesthetized by IP injection with Ketamine/Xylazine (90-100 mg/kg+10 mg/kg) and positioned underneath a microscope. Mice eyes were dilated with topical Tropicamide (1%) and 1 ul of loaded mini-nucleosomes (total dose 1.5 micrograms in mice) were injected into the vitreous cavity using 32 gauze blunt needle passing through the incision made by a 25-gauze needle below the limbus. At various time points, mice were perfused with 10 ml of 1×PBS, and then sacrificed using standard techniques. Mice were enucleated and eyecups were collected and incubated in 4% paraformaldehyde overnight. The eyecups were washed with 1×PBS, then immersed in 15% sucrose for few hours and then in 30% sucrose solution overnight for cryopreservation. The eyecups were then placed in a plastic vial and frozen using OCT compound for cryo-sectioning. 10-micron thick tissue sections were obtained for staining. The retinal sections were mounted with mounting media with or without DAPI, coverslip and sealed. Images were acquired by Leica SP5. For whole mount imaging, eyecups were fixed in 4% paraformaldehyde overnight. Eyecups were washed in 1×PBS, retina was removed and the remaining eyecup or RPE wholemount was processed for staining. The RPE tissue was whole mounted with mounting media, coverslip and sealed. Images were acquired by Leica SP5.
To target the RPE cells, the present Example utilized a mini-nucleosome core protein (SEQ ID NO: 392) that could bind to the phagocytic proteins like MERTK. RPE are phagocytic cells, that extend their microvilli to the photoreceptor inner/outer segment junction. MERTK is expressed in those microvilli. In SEQ ID NO: 392, we incorporated the “eat me” signals as descried in Table 8. In literature, “eat me” signals are described as domains exposed in cellular debris that are primed for phagocytosis (Wei Li, Journal of Cell physiology, 2016, which is incorporated herein by reference). To the present inventor's knowledge, these “eat me” signals have never been utilized in the context of non-viral vectors before. […]

Substance	GFP fluorescence in muscle tissue sections at 3 months [1]	Shape of loaded mini-nucleosome (TEM) [2]	GFP expression / transduction in retina and RPE [3]
CKKKKKKKKKKKKKKKKKKKKKKKKKKKKKK [SEQ ID NO: 393, reference compound]	didn't exhibit GFP fluorescence	spiral/helical-shaped	–
KKKRHRKKKKK-[LINKER]-RGD-[LINKER]-KKKK-[LINKER]-NTQIH-[LINKER]-RRRRR-[LINKER]-TPH-[LINKER]-KK (KKKRHRKKKKK[LINKER]RGD[LINKER]KKKK[LINKER]NTQIH[LINKER]RRRRR[LINKER]TPH[LINKER]KK; reading uncertain; also: linker structure not given here) [SEQ ID NO: 391]	sharp green fluorescence in skeletal muscle cells	mixture of circular and rod like molecules	–
KKKRHRKRKRKRKRRRRKKK-[LINKER]-ASSLNIAK-[LINKER]-RRRR (KKKRHRKRKRKRKRRRRKKK[LINKER]ASSLNIAK[LINKER]RRRR; reading uncertain; also: linker structure not given here) [SEQ ID NO: 389]	didn't exhibit GFP fluorescence	–	–
SEQ ID NO. 388 (KKRHRKLREKRHRKLRRRRRLKRHRKKRHRKLREK; not fully specified)	–	–	express GFP to target neuronal cells in the retina
SEQ ID NO. 392 (KKKRKKTKKKAKKALKKKKKGKKKKRRRRKAAPKK; not fully specified)	–	–	enhanced uptake into the RPE
SEQ ID NO:388 (KKRHRKLREKRHRKLRRRRRLKRHRKKRHRKLREK; not fully specified)	–	–	transduction into ganglion cells, bipolar cells and photoreceptors
